In article doi:10.1101/2021.02.13.431008v1 (biorxiv, 2021):

Legend:
[1] = biological target: T1, SARS-CoV-2 PLpro (papain-like protease) (Severe acute respiratory syndrome coronavirus 2, UniProt P0DTD1); assay: biochemical
[2] = biological target: T1, SARS-CoV-2 PLpro (papain-like protease); details: binder

Q: `CC(C)c1cc(C(C)C)c(CC(=O)NS(=O)(=O)Oc2c(C(C)C)cccc2C(C)C)c(C(C)C)c1` [avasimibe] was tested. Which IC50 [1] did it give?
A: > 20 µM

Q: With `Cc1ccc(NC2CNC2)cc1C(=O)N[C@H](C)c1cccc2ccccc12` [ZN2-184] as the compound, how does the “Ave kd” value [2] read?
A: 0.349 s⁻¹

Q: `Cc1ccc(NC2CNC2)cc1C(=O)N[C@H](C)c1cccc(-c2cccs2)c1` [ZN3-80] was tested. Which “Ave kd” value [2] did it give?
A: 0.327 s⁻¹

Q: For `CCOc1nc2cccc(C(=O)O)c2n1Cc1ccc(-c2ccccc2-c2nnn[nH]2)cc1` [candesartan], which IC50 [1] is on record?
A: > 20 µM

Q: With `Cc1ccc(NC2CNC2)cc1C(=O)N[C@H](C)c1cccc(-c2ccc(CNC3CCCC3)s2)c1` [XR8-23] as the compound, how does the “Ave kd” value [2] read?
A: 0.124 s⁻¹
